Tested on: 3T3 cells
Experiment: Biocompatibility evaluation (live/dead, CCK-8, extract medium)
Assay type: cell-based
Protocol: The tests in this example were conducted under the following conditions/standards. • 5. Mechanical property test: The mechanical properties of bionic excipients were based on the ASTM F2458-05 standard. GelMA, PGLADMA and double-layer GelMA/PGLADMA samples with a size of 20×5 mm were prepared and stretched at a rate of 1 mm/min using a two-arm mechanical tensile instrument at room temperature, and the mechanical properties were calculated, where tensile elastic modulus=stress/strain. For example, reference can be made to the test method in Theocharidis G, Yuk H, Roh H, et al. A strain-programmed patch for the healing of diabetic wounds [J]. Nature biomedical engineering, 2022, 6 (10): 1118-1133. • 6. Hemostatic property: For the hemostatic properties of bionic excipients, for example, reference can be made to Guo Y, Wang Y, Zhao X, et al. Snake extract-laden hemostatic bioadhesive gel cross-linked by visible light [J]. Science Advances, 2021, 7 (29): cabf9635. • 7. […] After 1, 2, and 3 days of incubation, cell viability and cell proliferation were evaluated using a live/dead cell detection kit (Thermo Fisher, Hong Kong) and a CCK-8 kit (Sigma-Aldrich, Hong Kong), respectively. […]

Oc1cc(Cl)ccc1Oc1ccc(Cl)cc1Cl [TCS, triclosan]
toxicity to cells (TCS concentration below 5%): no toxicity
toxicity to cells (TCS concentration of around 10%): only slightly toxic
